Like-named read-outs stand apart in the source and are kept apart here.
Legend:
Type in all cases: binding
[1] = target: T1, HeLa cell extract proteins (Homo sapiens, UniProt O75694)
T1 construct: endogenous in cells; host or cells: HeLa cell extract
T1 sequence (O75694 1-1391): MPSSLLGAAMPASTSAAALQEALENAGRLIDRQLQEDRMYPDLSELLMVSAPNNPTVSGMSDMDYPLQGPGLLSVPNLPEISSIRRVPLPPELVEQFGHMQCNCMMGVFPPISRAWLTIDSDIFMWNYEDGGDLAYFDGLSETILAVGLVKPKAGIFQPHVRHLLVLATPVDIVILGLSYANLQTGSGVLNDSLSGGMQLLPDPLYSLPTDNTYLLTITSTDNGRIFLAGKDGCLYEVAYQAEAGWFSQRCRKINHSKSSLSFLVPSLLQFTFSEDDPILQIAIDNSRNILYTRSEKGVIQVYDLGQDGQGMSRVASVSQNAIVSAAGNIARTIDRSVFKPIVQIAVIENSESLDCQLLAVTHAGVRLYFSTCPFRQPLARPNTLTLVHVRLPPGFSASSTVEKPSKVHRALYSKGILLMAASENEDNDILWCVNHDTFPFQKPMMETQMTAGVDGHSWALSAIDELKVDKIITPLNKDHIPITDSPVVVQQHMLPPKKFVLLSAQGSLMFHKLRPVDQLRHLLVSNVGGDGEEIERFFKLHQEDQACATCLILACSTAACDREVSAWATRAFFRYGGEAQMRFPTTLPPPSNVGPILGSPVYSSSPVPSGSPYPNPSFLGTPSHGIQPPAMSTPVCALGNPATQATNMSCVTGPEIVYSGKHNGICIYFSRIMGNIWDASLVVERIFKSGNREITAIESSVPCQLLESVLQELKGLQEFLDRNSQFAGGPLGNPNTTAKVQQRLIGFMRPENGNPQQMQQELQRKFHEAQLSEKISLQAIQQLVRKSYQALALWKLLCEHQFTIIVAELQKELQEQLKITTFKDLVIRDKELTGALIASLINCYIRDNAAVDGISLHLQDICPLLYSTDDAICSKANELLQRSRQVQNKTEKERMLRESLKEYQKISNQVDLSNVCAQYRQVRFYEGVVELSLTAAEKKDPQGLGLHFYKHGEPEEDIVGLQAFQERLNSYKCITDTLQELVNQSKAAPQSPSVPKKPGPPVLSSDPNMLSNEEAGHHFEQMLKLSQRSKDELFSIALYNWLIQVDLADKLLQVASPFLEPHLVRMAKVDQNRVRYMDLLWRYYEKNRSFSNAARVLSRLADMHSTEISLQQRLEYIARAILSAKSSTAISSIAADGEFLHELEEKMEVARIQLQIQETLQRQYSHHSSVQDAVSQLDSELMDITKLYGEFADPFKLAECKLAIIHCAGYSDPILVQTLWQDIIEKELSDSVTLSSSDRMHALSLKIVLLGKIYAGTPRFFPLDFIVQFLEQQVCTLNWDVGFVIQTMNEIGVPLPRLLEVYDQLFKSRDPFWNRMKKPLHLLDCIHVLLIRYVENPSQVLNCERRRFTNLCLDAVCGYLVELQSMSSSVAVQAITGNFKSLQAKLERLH

[2] = target: T2, HeLa cell extract proteins (Homo sapiens, UniProt P18669)
T2 construct: endogenous in cells; host or cells: HeLa cell extract

[3] = target: T3, HeLa cell extract proteins (Homo sapiens, UniProt P61457)
T3 construct: endogenous in cells; host or cells: HeLa cell extract
T3 sequence (P61457 1-104): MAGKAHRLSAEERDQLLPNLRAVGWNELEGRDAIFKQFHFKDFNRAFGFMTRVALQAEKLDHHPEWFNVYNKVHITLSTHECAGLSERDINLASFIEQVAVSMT

[4] = target: T4, HeLa cell extract proteins (Homo sapiens, UniProt P57740)
T4 construct: endogenous in cells; host or cells: HeLa cell extract
T4 sequence (P57740 1-925): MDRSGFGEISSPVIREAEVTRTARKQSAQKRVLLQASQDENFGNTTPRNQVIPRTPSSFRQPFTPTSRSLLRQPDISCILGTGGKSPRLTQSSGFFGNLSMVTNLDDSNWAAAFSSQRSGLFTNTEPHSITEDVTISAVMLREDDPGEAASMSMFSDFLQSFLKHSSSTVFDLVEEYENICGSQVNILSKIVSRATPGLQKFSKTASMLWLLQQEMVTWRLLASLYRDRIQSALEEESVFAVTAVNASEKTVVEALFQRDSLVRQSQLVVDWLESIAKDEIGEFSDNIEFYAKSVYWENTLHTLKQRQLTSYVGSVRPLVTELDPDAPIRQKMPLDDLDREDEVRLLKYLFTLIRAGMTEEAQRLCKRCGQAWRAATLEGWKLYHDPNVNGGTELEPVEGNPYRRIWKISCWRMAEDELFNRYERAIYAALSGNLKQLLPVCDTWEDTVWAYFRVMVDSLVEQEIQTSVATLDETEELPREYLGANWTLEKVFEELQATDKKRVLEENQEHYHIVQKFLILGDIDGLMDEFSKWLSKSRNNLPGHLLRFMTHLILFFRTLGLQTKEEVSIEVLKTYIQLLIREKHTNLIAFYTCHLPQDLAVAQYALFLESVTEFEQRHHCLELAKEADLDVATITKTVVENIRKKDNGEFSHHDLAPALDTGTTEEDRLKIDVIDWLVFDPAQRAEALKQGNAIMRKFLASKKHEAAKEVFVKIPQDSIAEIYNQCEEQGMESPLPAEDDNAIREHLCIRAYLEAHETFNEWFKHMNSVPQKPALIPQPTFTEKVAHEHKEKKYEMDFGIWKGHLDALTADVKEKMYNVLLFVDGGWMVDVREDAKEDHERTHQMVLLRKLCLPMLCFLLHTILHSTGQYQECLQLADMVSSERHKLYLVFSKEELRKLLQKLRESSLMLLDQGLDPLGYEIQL

[5] = target: T5, HeLa cell extract proteins (Homo sapiens, UniProt Q969U7)
T5 construct: endogenous in cells; host or cells: HeLa cell extract
T5 sequence (Q969U7 1-264): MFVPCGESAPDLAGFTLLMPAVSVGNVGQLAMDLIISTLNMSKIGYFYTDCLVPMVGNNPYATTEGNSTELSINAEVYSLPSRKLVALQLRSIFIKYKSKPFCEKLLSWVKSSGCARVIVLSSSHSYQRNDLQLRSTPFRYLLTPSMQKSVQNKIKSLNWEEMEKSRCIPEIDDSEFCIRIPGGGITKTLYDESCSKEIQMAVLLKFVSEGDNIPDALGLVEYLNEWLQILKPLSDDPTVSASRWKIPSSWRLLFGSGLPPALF

[6] = target: T6, HeLa cell extract proteins (Homo sapiens, UniProt A5YKK6)
T6 construct: endogenous in cells; host or cells: HeLa cell extract

[7] = HeLa, protein PGAM1 (SIMILAR TO PHOSPHOGLYCERATE MUTASE 1 ISOFORM 1.)

T2 sequence (P18669 whole entry): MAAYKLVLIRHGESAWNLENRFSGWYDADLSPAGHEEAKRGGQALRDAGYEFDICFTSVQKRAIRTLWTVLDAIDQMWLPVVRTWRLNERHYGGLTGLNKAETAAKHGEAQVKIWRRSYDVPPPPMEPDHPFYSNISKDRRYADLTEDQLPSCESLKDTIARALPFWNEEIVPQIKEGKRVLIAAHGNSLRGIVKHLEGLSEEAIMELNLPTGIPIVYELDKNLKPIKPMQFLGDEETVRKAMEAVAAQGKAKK
T6 sequence (A5YKK6 whole entry): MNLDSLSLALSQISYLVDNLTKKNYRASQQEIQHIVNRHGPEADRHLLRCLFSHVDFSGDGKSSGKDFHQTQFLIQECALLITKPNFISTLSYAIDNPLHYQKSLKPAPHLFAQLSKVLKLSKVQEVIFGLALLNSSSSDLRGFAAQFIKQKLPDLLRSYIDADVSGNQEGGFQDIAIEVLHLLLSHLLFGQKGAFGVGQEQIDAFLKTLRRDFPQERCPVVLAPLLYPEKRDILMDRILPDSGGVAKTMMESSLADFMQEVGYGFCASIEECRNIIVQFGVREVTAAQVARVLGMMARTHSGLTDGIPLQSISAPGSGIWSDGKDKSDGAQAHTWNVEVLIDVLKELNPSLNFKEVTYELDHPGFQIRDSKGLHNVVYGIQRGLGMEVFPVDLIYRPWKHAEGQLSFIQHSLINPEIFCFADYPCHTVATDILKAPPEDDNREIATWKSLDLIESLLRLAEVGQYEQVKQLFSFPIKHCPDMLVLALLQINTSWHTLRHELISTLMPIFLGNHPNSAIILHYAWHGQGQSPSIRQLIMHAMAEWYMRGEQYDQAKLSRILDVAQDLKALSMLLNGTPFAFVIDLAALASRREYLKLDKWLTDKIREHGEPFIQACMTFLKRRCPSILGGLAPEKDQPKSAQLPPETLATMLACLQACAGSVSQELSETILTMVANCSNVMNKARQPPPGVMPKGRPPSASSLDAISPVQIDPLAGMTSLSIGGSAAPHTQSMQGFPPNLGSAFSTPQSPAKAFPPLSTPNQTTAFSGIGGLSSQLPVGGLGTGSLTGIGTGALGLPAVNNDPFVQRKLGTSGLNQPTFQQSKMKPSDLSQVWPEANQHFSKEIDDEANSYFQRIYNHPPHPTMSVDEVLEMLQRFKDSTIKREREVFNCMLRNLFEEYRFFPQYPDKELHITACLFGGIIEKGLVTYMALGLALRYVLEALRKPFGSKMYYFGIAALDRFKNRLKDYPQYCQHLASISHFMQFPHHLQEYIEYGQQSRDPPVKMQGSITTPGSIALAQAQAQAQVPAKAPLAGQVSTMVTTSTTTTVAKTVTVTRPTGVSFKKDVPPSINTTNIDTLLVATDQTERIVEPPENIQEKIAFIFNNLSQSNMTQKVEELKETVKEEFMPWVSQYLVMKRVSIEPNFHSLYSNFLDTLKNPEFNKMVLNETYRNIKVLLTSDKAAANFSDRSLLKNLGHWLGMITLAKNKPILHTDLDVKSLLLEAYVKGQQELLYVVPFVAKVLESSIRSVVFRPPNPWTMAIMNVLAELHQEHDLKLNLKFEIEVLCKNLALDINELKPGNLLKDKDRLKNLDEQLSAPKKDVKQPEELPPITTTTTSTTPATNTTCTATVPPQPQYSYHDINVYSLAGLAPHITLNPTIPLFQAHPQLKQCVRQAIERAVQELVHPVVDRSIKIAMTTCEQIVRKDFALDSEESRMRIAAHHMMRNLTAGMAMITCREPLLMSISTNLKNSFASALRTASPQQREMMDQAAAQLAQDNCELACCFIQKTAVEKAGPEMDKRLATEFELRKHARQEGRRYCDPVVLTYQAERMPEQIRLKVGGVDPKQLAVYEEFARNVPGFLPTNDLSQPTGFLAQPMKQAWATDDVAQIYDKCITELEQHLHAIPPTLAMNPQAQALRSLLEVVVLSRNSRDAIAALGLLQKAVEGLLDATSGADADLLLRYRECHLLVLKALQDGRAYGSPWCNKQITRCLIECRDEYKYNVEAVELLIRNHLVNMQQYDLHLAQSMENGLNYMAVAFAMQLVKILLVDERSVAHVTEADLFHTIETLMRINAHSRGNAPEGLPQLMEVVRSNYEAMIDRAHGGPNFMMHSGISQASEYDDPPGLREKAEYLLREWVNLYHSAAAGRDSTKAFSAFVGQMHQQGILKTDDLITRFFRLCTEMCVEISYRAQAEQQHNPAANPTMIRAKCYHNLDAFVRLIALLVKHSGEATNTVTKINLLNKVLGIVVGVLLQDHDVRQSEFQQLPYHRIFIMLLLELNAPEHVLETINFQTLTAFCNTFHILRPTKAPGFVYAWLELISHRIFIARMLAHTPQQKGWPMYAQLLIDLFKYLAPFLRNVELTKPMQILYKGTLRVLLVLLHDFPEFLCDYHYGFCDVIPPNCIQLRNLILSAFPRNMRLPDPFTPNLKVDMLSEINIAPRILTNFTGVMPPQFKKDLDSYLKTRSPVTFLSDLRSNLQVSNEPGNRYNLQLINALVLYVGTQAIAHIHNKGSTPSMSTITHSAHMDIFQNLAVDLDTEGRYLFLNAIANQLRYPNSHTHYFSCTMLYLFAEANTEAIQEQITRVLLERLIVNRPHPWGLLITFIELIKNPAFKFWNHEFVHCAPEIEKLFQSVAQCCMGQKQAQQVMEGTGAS

| SMILES | fold changes relative to vehicle control ([1]; HeLa, protein NUP155) | fold changes relative to vehicle control ([2]; HeLa, protein PGAM1) | fold changes relative to vehicle control ([3]; HeLa, captured protein PCBD1) | fold changes relative to vehicle control ([4]; HeLa, protein NUP107) | fold changes relative to vehicle control ([5]; HeLa, captured protein PSMG2) | fold changes relative to vehicle control ([6]; HeLa, captured protein CNOT1) | fold changes relative to vehicle control [1] | fold changes relative to vehicle control [2] | fold changes relative to vehicle control [3] | fold changes relative to vehicle control [4] | fold changes relative to vehicle control [5] | fold changes relative to vehicle control [6] | fold changes relative to vehicle control [2, 7] | fold changes relative to vehicle control ([3]; captured protein PCBD1, HeLa) | fold changes relative to vehicle control ([5]; protein PSMG2, HeLa) | fold changes relative to vehicle control ([6]; protein CNOT1, HeLa) | fold changes relative to vehicle control ([2]; HeLa, protein PGAM1 (SIMILAR TO PHOSPH[…] 1 ISOFORM 1.)) |
| --- | --- | --- | --- | --- | --- | --- | --- | --- | --- | --- | --- | --- | --- | --- | --- | --- | --- |
| Nc1nc2c(c(=O)[nH]1)N(C=O)C(CNc1ccc(C(=O)N[C@@H](CCC(=O)O)C(=O)O)cc1)CN2 (stereo partly drawn) [LEU, leucovorin] | 0.87 | 1.05 | 1.4 | 1.01 | 1.05 | 0.93 | – | – | – | – | – | – | – | – | – | – | – |
| Nc1nc2[nH]cc(CCc3ccc(C(=O)N[C@@H](CCC(=O)O)C(=O)O)cc3)c2c(=O)[nH]1 [PTX, pemetrexed] | – | – | – | – | – | – | 0.92 | 1.24 | 1.68 | 0.98 | 0.97 | 1 | – | – | – | – | – |
| CCCCCCOc1ccc(Cc2cnc(N)nc2N)cc1 [compound 1] | 1.04 | – | – | 0.98 | – | – | – | – | – | – | – | – | 1.5 fold | 1.01 | 1 | 1.3 | – |
| CCCCCCOc1cccc(Cc2cnc(N)nc2N)c1 [compound 2] | 1.01 | – | – | 1.03 | – | – | – | – | – | – | – | – | 2.64 fold | 0.96 | 1.03 | 1.32 | – |
| Nc1nc2cccc(-c3ccccc3)c2n1Cc1ccc(Cl)c(Cl)c1 [compound 3] | 1.2 | – | – | 1.07 | – | – | – | – | – | – | – | – | – | 1.29 | 0.87 | 1.37 | 0.9 fold |
| NCCOCCOCC(=O)Nc1nc2ncc(CNc3ccc(C(=O)NC(CCC(=O)O)C(=O)O)cc3)nc2c(=O)[nH]1 (stereo not drawn) [compound 6] | 0.92 | 1.41 | 1.58 | 1.18 | 1 | 1.17 | – | – | – | – | – | – | – | – | – | – | – |
| NCCCNc1ccc(C(=O)NC(CCC(=O)O)C(=O)O)cc1 (stereo not drawn) [compound 7] | 1.03 | 0.99 | 1.48 | 1.26 | 0.98 | 1.16 | – | – | – | – | – | – | – | – | – | – | – |

— article PMC6199744, “Development of Chemical Proteomics for the Folateome and Analysis of the Kinetoplastid Folateome” (ACS Infectious Diseases, 2018)
